{
  "source": "paper PMC5218480",
  "about": "(PLoS ONE, 2017)",
  "tested_on": "MV-4-11 cells",
  "test": "Gene expression microarray analysis (Affymetrix PrimeView) and GSEA",
  "assay_type": "cell-based, human",
  "design": "RFU PODN (11730768_x_at) / Fold change /veh PODN (11730768_x_at) / RFU LINC00158 (11744669_a_at) / Fold change /veh LINC00158 (11744669_a_at) / RFU DUSP10 (11751237_a_at) / Fold change /veh DUSP10 (11751237_a_at) / RFU ID3 (11757404_x_at) / Fold change /veh ID3 (11757404_x_at) / RFU PLEKHG5 (11737974_s_at) / Fold change /veh PLEKHG5 (11737974_s_at) / RFU LRRC4B (11730491_at) / Fold change /veh LRRC4B (11730491_at) / RFU GIMAP4 (11747438_a_at) / Fold change /veh GIMAP4 (11747438_a_at) / RFU KRT8 (11758183_x_at) / Fold change /veh KRT8 (11758183_x_at) / RFU CNN1 (11734310_a_at) / Fold change /veh CNN1 (11734310_a_at) / RFU VPS37D (11726825_at) / Fold change /veh VPS37D (11726825_at) / RFU C10orf10 (11716522_x_at) / Fold change /veh C10orf10 (11716522_x_at) / RFU KIR2DL2 /// KIR2DL4 /// KIR2DL5A /// KIR2DL5B /// KIR2DS1 /// KIR2DS2 /// KIR2DS3 /// KIR2DS4 /// KIR3DL3 /// KIR3DL3 /// KIR3DS1 (11738374_at) / Fold change /veh KIR2DL2 /// KIR2DL4 /// KIR2DL5A /// KIR2DL5B /// KIR2DS1 /// KIR2DS2 /// KIR2DS3 /// KIR2DS4 /// KIR3DL3 /// KIR3DL3 /// KIR3DS1 (11738374_at) / RFU C1QL1 (11718748_at) / Fold change /veh C1QL1 (11718748_at) / RFU TMPRSS4 (11747572_a_at) / Fold change /veh TMPRSS4 (11747572_a_at) / RFU HAMP (11756126_x_at) / Fold change /veh HAMP (11756126_x_at) / RFU RNFT2 (11725882_a_at) / Fold change /veh RNFT2 (11725882_a_at) / RFU NR4A2 (11747474_a_at) / Fold change /veh NR4A2 (11747474_a_at) / RFU ABCC12 (11746883_a_at) / Fold change /veh ABCC12 (11746883_a_at) / RFU TMEM136 (11760407_x_at) / Fold change /veh TMEM136 (11760407_x_at) / RFU CLDN22 /// WWC2 (11732394_at) / Fold change /veh CLDN22 /// WWC2 (11732394_at) / RFU HLA-DPB1 (11760878_x_at) / Fold change /veh HLA-DPB1 (11760878_x_at) / RFU SPINT1 (11716480_a_at) / Fold change /veh SPINT1 (11716480_a_at) / RFU GAP43 (11754022_s_at) / Fold change /veh GAP43 (11754022_s_at) / RFU A4GNT (11735810_at) / Fold change /veh A4GNT (11735810_at) / RFU PRB3 (11715151_x_at) / Fold change /veh PRB3 (11715151_x_at) / RFU TUBB4B (11761932_at) / Fold change /veh TUBB4B (11761932_at) / RFU CAPN14 (11732068_a_at) / Fold change /veh CAPN14 (11732068_a_at) / RFU TMCC2 (11721928_a_at) / Fold change /veh TMCC2 (11721928_a_at) / RFU IRGQ (11745062_a_at) / Fold change /veh IRGQ (11745062_a_at) / RFU FAM174B (11720279_a_at) / Fold change /veh FAM174B (11720279_a_at) / RFU TMPRSS4 (11748680_a_at) / Fold change /veh TMPRSS4 (11748680_a_at) / RFU FAM212B (11763350_a_at) / Fold change /veh FAM212B (11763350_a_at) / RFU PLEKHG5 (11743358_a_at) / Fold change /veh PLEKHG5 (11743358_a_at) / RFU ZSCAN30 (11745921_a_at) / Fold change /veh ZSCAN30 (11745921_a_at) / RFU CMKLR1 (11741424_a_at) / Fold change /veh CMKLR1 (11741424_a_at) / RFU LOC101060620 /// MAPK8IP1 (11723275_at) / Fold change /veh LOC101060620 /// MAPK8IP1 (11723275_at) / RFU SPTSSB (11747773_x_at) / Fold change /veh SPTSSB (11747773_x_at) / RFU PRSS12 (11739890_at) / Fold change /veh PRSS12 (11739890_at) / RFU BIN1 (11741810_x_at) / Fold change /veh BIN1 (11741810_x_at) / RFU WNT11 (11732464_a_at) / Fold change /veh WNT11 (11732464_a_at) / RFU C10orf10 (11716521_a_at) / Fold change /veh C10orf10 (11716521_a_at) / RFU C5orf56 (11738089_at) / Fold change /veh C5orf56 (11738089_at) / RFU CYB561 (11721691_x_at) / Fold change /veh CYB561 (11721691_x_at) / RFU ANKRD19P (11752326_a_at) / Fold change /veh ANKRD19P (11752326_a_at) / RFU OR2T12 /// OR2T33 /// OR2T8 (11738714_s_at) / Fold change /veh OR2T12 /// OR2T33 /// OR2T8 (11738714_s_at) / RFU VCAN (11748164_a_at) / Fold change /veh VCAN (11748164_a_at) / RFU JSRP1 (11732532_at) / Fold change /veh JSRP1 (11732532_at) / RFU KRTAP10-11 (11738290_x_at) / Fold change /veh KRTAP10-11 (11738290_x_at) / RFU MYO3A (11730013_a_at) / Fold change /veh MYO3A (11730013_a_at) / RFU EBF3 (11725865_a_at) / Fold change /veh EBF3 (11725865_a_at) / RFU CAMK2N1 (11719241_x_at) / Fold change /veh CAMK2N1 (11719241_x_at) / RFU C5orf56 (11738088_a_at) / Fold change /veh C5orf56 (11738088_a_at) / RFU OLFML3 (11715873_a_at) / Fold change /veh OLFML3 (11715873_a_at) / RFU LOC100653217 /// NTM (11731650_a_at) / Fold change /veh LOC100653217 /// NTM (11731650_a_at) / RFU MAPK11 (11762145_a_at) / Fold change /veh MAPK11 (11762145_a_at) / RFU FIZ1 (11724087_x_at) / Fold change /veh FIZ1 (11724087_x_at) / RFU OASL (11726364_x_at) / Fold change /veh OASL (11726364_x_at) / RFU SOX15 (11748057_x_at) / Fold change /veh SOX15 (11748057_x_at) / RFU CD79A (11719716_a_at) / Fold change /veh CD79A (11719716_a_at) / RFU HIST1H1D (11736915_at) / Fold change /veh HIST1H1D (11736915_at) / RFU CASKIN2 (11723855_a_at) / Fold change /veh CASKIN2 (11723855_a_at) / RFU LOC730098 (11760151_x_at) / Fold change /veh LOC730098 (11760151_x_at) / RFU OR4N2 (11742367_at) / Fold change /veh OR4N2 (11742367_at) / RFU PRRT2 (11749266_a_at) / Fold change /veh PRRT2 (11749266_a_at) / RFU SNX32 (11753110_a_at) / Fold change /veh SNX32 (11753110_a_at) / RFU CDHR5 (11726645_a_at) / Fold change /veh CDHR5 (11726645_a_at) / RFU RCAN1 (11760418_a_at) / Fold change /veh RCAN1 (11760418_a_at) / RFU FAM167A (11723789_a_at) / Fold change /veh FAM167A (11723789_a_at) / RFU FAM26E (11764081_at) / Fold change /veh FAM26E (11764081_at) / RFU ISYNA1 (11749810_s_at) / Fold change /veh ISYNA1 (11749810_s_at) / RFU ACY1 (11761880_at) / Fold change /veh ACY1 (11761880_at) / RFU 11764098_at / Fold change /veh 11764098_at / RFU SAMD14 (11745864_x_at) / Fold change /veh SAMD14 (11745864_x_at) / RFU NPB (11741838_a_at) / Fold change /veh NPB (11741838_a_at) / RFU TMPRSS6 (11731388_a_at) / Fold change /veh TMPRSS6 (11731388_a_at) / RFU KRTAP10-2 (11738614_at) / Fold change /veh KRTAP10-2 (11738614_at) / RFU ARHGAP8 /// PRR5-ARHGAP8 (11727945_x_at) / Fold change /veh ARHGAP8 /// PRR5-ARHGAP8 (11727945_x_at) / RFU KRTAP5-7 /// NADSYN1 (11734609_at) / Fold change /veh KRTAP5-7 /// NADSYN1 (11734609_at) / RFU RASL12 (11751679_a_at) / Fold change /veh RASL12 (11751679_a_at) / RFU CDKN2B (11736163_a_at) / Fold change /veh CDKN2B (11736163_a_at) / RFU PRF1 (11729649_at) / Fold change /veh PRF1 (11729649_at) / RFU, ZNF638 /// ZNF638-IT1 / Fold change vs veh, ZNF638 /// ZNF638-IT1 / RFU, PANK3 / Fold change vs veh, PANK3 / RFU, SH3YL1 / Fold change vs veh, SH3YL1 / RFU, ZEB2 / Fold change vs veh, ZEB2 / RFU, NRIP1 / Fold change vs veh, NRIP1 / RFU, PTTG1IP / Fold change vs veh, PTTG1IP / RFU, CAPN2 / Fold change vs veh, CAPN2 / RFU, MED14 / Fold change vs veh, MED14 / RFU, SNORA58 / Fold change vs veh, SNORA58 / RFU, C1orf63 / Fold change vs veh, C1orf63 / RFU, LRRFIP1 / Fold change vs veh, LRRFIP1 / RFU, NDUFAF7 / Fold change vs veh, NDUFAF7 / RFU, SLC12A2 / Fold change vs veh, SLC12A2 / RFU, IBTK / Fold change vs veh, IBTK / RFU, ESF1 / Fold change vs veh, ESF1 / Fold change vs veh, TMEM50B / RFU, TAOK1 / Fold change vs veh, TAOK1 / RFU, ACBD3 / Fold change vs veh, ACBD3 / RFU, TMA16 / Fold change vs veh, TMA16 / RFU, RWDD3 / Fold change vs veh, RWDD3 / RFU, BCAT1 / Fold change vs veh, BCAT1 / RFU, EDEM3 / Fold change vs veh, EDEM3 / RFU, TMEM33 / Fold change vs veh, TMEM33 / RFU, WDR75 / Fold change vs veh, WDR75 / RFU, AHCTF1 / Fold change vs veh, AHCTF1 / RFU, TFRC / Fold change vs veh, TFRC / RFU, ZDHHC17 / Fold change vs veh, ZDHHC17 / RFU, NOM1 / Fold change vs veh, NOM1 / RFU, ARL8B / Fold change vs veh, ARL8B / RFU, ZBTB11 / Fold change vs veh, ZBTB11 / RFU, TAMM41 / Fold change vs veh, TAMM41 / RFU, KIAA1704 /// LOC100996395 / Fold change vs veh, KIAA1704 /// LOC100996395 / RFU, ING1 / Fold change vs veh, ING1 / RFU, TRMT61B / Fold change vs veh, TRMT61B / RFU, FUBP3 / Fold change vs veh, FUBP3 / RFU, TP53 / Fold change vs veh, TP53 / RFU, TNKS2 / Fold change vs veh, TNKS2 / RFU, ZFP14 / Fold change vs veh, ZFP14 / RFU, ACTR2 / Fold change vs veh, ACTR2 / RFU, PPP3R1 / Fold change vs veh, PPP3R1 / RFU, PIK3R1 / Fold change vs veh, PIK3R1 / RFU, HNRNPA1 / Fold change vs veh, HNRNPA1 / RFU, RNF170 / Fold change vs veh, RNF170 / RFU, ZNF28 / Fold change vs veh, ZNF28 / RFU, RNGTT / Fold change vs veh, RNGTT / RFU, OGT / Fold change vs veh, OGT / RFU, BRD1 / Fold change vs veh, BRD1 / RFU, MARS / Fold change vs veh, MARS / RFU, ZNF655 / Fold change vs veh, ZNF655 / RFU, FAHD1 / Fold change vs veh, FAHD1 / RFU, BDP1 / Fold change vs veh, BDP1 / RFU, LRRCC1 / Fold change vs veh, LRRCC1 / RFU, ARID1A / Fold change vs veh, ARID1A / RFU, ZNF146 / Fold change vs veh, ZNF146 / RFU, ZNF330 / Fold change vs veh, ZNF330 / RFU, GPN3 / Fold change vs veh, GPN3 / RFU, C9orf123 / Fold change vs veh, C9orf123 / RFU, N4BP2L2 / Fold change vs veh, N4BP2L2 / RFU, ARFIP1 / Fold change vs veh, ARFIP1 / RFU, FAM179B / Fold change vs veh, FAM179B / RFU, BCL10 / Fold change vs veh, BCL10 / RFU, UHRF1BP1L / Fold change vs veh, UHRF1BP1L / RFU, BET1 / Fold change vs veh, BET1 / RFU, CNOT2 / Fold change vs veh, CNOT2 / RFU, ZNF268 / Fold change vs veh, ZNF268 / Fold change vs veh, ZNF507 / RFU, DGCR2 / Fold change vs veh, DGCR2 / RFU, WDSUB1 / Fold change vs veh, WDSUB1 / Fold change vs veh, HSP90B1 /// MIR3652 / RFU, ADSS / Fold change vs veh, ADSS / RFU, GK / Fold change vs veh, GK / RFU, ZNF148 / Fold change vs veh, ZNF148 / RFU, TAF9 / Fold change vs veh, TAF9 / RFU, SLC1A5 / Fold change vs veh, SLC1A5 / RFU, SLMO2 / Fold change vs veh, SLMO2 / RFU, ABCC4 / Fold change vs veh, ABCC4 / RFU, LOC101060439 /// RAP1B / Fold change vs veh, LOC101060439 /// RAP1B / RFU, RFX7 / Fold change vs veh, RFX7 / RFU, GTPBP10 / Fold change vs veh, GTPBP10 / RFU, CNEP1R1 / Fold change vs veh, CNEP1R1 / RFU, BIVM-ERCC5 /// ERCC5 / Fold change vs veh, BIVM-ERCC5 /// ERCC5 / RFU, ILF3 / Fold change vs veh, ILF3 / RFU 11762660_at / Fold change /veh 11762660_at / RFU VCAN (11757783_s_at) / Fold change /veh VCAN (11757783_s_at) / RFU DDX43 (11728927_at) / Fold change /veh DDX43 (11728927_at) / RFU KRT8 (11758188_x_at) / Fold change /veh KRT8 (11758188_x_at) / RFU NKD1 (11759106_at) / Fold change /veh NKD1 (11759106_at) / RFU SRD5A1 (11742802_a_at) / Fold change /veh SRD5A1 (11742802_a_at) / RFU TPSAB1 /// TPSB2 (11721975_s_at) / Fold change /veh TPSAB1 /// TPSB2 (11721975_s_at) / RFU GSTM3 (11746129_a_at) / Fold change /veh GSTM3 (11746129_a_at) / RFU IL23R (11737362_x_at) / Fold change /veh IL23R (11737362_x_at) / RFU TMEM51 (11727254_a_at) / Fold change /veh TMEM51 (11727254_a_at) / RFU PIWIL2 (11732686_x_at) / Fold change /veh PIWIL2 (11732686_x_at) / RFU ORM1 (11744905_x_at) / Fold change /veh ORM1 (11744905_x_at) / RFU CCDC152 (11743942_at) / Fold change /veh CCDC152 (11743942_at) / RFU ECM1 (11717891_a_at) / Fold change /veh ECM1 (11717891_a_at) / RFU IL23R (11748794_a_at) / Fold change /veh IL23R (11748794_a_at) / RFU TNFAIP8L3 (11732012_x_at) / Fold change /veh TNFAIP8L3 (11732012_x_at) / RFU MBOAT4 (11741988_at) / Fold change /veh MBOAT4 (11741988_at) / RFU 11764193_at / Fold change /veh 11764193_at / RFU TMEM53 (11763286_at) / Fold change /veh TMEM53 (11763286_at) / RFU MAGEB2 (11727129_at) / Fold change /veh MAGEB2 (11727129_at) / RFU TMEM200A (11744735_a_at) / Fold change /veh TMEM200A (11744735_a_at) / RFU CCDC152 (11751479_a_at) / Fold change /veh CCDC152 (11751479_a_at) / RFU FAM211A (11726209_a_at) / Fold change /veh FAM211A (11726209_a_at) / RFU RGS16 (11746705_a_at) / Fold change /veh RGS16 (11746705_a_at) / RFU VCAN (11755009_s_at) / Fold change /veh VCAN (11755009_s_at) / RFU RHOB (11743442_s_at) / Fold change /veh RHOB (11743442_s_at) / RFU RGS16 (11720943_a_at) / Fold change /veh RGS16 (11720943_a_at) / RFU RGS16 (11720944_at) / Fold change /veh RGS16 (11720944_at) / RFU, VPS4B / Fold change vs veh, VPS4B / RFU, CREB1 / Fold change vs veh, CREB1 / RFU, DNAJC13 / Fold change vs veh, DNAJC13 / RFU, GNAQ / Fold change vs veh, GNAQ / RFU, CDK5R1 / Fold change vs veh, CDK5R1 / RFU, ZRANB3 / Fold change vs veh, ZRANB3 / RFU, CUL4A / Fold change vs veh, CUL4A / RFU, CCNY / Fold change vs veh, CCNY / RFU, UFL1 / Fold change vs veh, UFL1 / RFU, COG3 / Fold change vs veh, COG3 / RFU, DIAPH2 / Fold change vs veh, DIAPH2 / RFU, SKA2 / Fold change vs veh, SKA2 / RFU, AFF3 / Fold change vs veh, AFF3 / RFU, LMF1 / Fold change vs veh, LMF1 / RFU, IPO11 / Fold change vs veh, IPO11 / RFU, DFFB / Fold change vs veh, DFFB / RFU, FOXP1 / Fold change vs veh, FOXP1 / RFU, CARD8 / Fold change vs veh, CARD8 / RFU, STRN3 / Fold change vs veh, STRN3 / RFU, ADK / Fold change vs veh, ADK / RFU, RASSF2 / Fold change vs veh, RASSF2 / RFU, WIPF1 / Fold change vs veh, WIPF1 / RFU, LARP1B / Fold change vs veh, LARP1B / RFU, RASA1 / Fold change vs veh, RASA1 / RFU, RB1 / Fold change vs veh, RB1 / RFU, PPFIA1 / Fold change vs veh, PPFIA1 / RFU, MAT2A / Fold change vs veh, MAT2A / RFU, CCT5 / Fold change vs veh, CCT5 / RFU, WDR92 / Fold change vs veh, WDR92 / RFU, CUX1 / Fold change vs veh, CUX1 / RFU, TTC7A / Fold change vs veh, TTC7A / RFU, TMEM135 / Fold change vs veh, TMEM135 / RFU, DEPTOR / Fold change vs veh, DEPTOR / RFU, CPM / Fold change vs veh, CPM / RFU, DNAJB6 / Fold change vs veh, DNAJB6 / RFU, CACNA2D3 / Fold change vs veh, CACNA2D3 / RFU, DTX4 / Fold change vs veh, DTX4 / RFU, TFCP2 / Fold change vs veh, TFCP2 / RFU, GMCL1 /// GMCL1P1 / Fold change vs veh, GMCL1 /// GMCL1P1 / RFU, AEBP2 / Fold change vs veh, AEBP2 / RFU, SNHG1 /// SNORD22 /// SNORD25 /// SNORD26 /// SNORD27 /// SNORD28 /// SNORD29 /// SNORD31 / Fold change vs veh, SNHG1 /// SNORD22 /// SNORD25 /// SNORD26 /// SNORD27 /// SNORD28 /// SNORD29 /// SNORD31 / Fold change (Aza/veh), C12orf56 (ProbeSet 11735607_a_at) / Fold change (ACY-1035/veh), C12orf56 (ProbeSet 11735607_a_at) / Fold change (Aza/veh), FGFR1OP (ProbeSet 11751329_s_at) / Fold change (ACY-1035/veh), FGFR1OP (ProbeSet 11751329_s_at) / Fold change (Aza/veh), VPS36 (ProbeSet 11739960_a_at) / Fold change (ACY-1035/veh), VPS36 (ProbeSet 11739960_a_at) / RFU SYPL1 (11715823_x_at) / Fold change /veh SYPL1 (11715823_x_at) / RFU IGFBP7 (11715501_s_at) / Fold change /veh IGFBP7 (11715501_s_at) / RFU REEP3 (11722064_at) / Fold change /veh REEP3 (11722064_at) / RFU IGLL1 (11728026_x_at) / Fold change /veh IGLL1 (11728026_x_at): dose or concentration left out as unconfirmed",
  "details": "MV-4-11 cells, 48 hours",
  "data": [
    {"smiles": "Nc1ccc(-c2cccs2)cc1NC(=O)c1ccc2c(c1)cc(C1CC1)n2CCN1CCOCC1", "note": "[ACY-1035]", "values": [
      {"measurement": "Fold change /veh BIN1 (11741810_x_at)", "result": 1.15}
    ]}
  ]
}
